Test results taken from PubChem BioAssay (NCI).
Where “and” joins values, the source holds several entries; their conditions need not be identical. Equal values may be shown once.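 Compound exposure: 48 hours, 5 concentrations, 96-well plates. Abbreviation: GI50, concentration required for 50% inhibition of growth. TGI is the concentration that stops growth completely.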

Legend:
Assay in all cases: DTP human tumour cell line panel, 48 h
KM12 colon = test system: KM12 colon
MOLT-4 leukemia = test system: MOLT-4 leukemia
HCT-116 colon = test system: HCT-116 colon
MDA-N = test system: MDA-N
SNB-19 CNS = test system: SNB-19 CNS
MALME-3M melanoma = test system: MALME-3M melanoma
HOP-62 NSCLC = test system: HOP-62 NSCLC
A498 renal = test system: A498 renal
SF-268 CNS = test system: SF-268 CNS
NCI-H23 lung = test system: NCI-H23 lung
HCT-15 colon = test system: HCT-15 colon
CCRF-CEM leukemia = test system: CCRF-CEM leukemia
SN12C renal = test system: SN12C renal
OVCAR-5 ovarian = test system: OVCAR-5 ovarian
MDA-MB-435 = test system: MDA-MB-435
BT-549 breast = test system: BT-549 breast
NCI-H460 lung = test system: NCI-H460 lung
NCI-H522 lung = test system: NCI-H522 lung
SK-OV-3 ovarian = test system: SK-OV-3 ovarian
CAKI-1 renal = test system: CAKI-1 renal
RXF 393 renal = test system: RXF 393 renal
HT29 colon = test system: HT29 colon
U251 CNS = test system: U251 CNS
HCC-2998 colon = test system: HCC-2998 colon
MCF7 breast = test system: MCF7 breast
SW-620 colon = test system: SW-620 colon
SK-MEL-28 melanoma = test system: SK-MEL-28 melanoma
HL-60(TB) leukemia = test system: HL-60(TB) leukemia
COLO 205 colon = test system: COLO 205 colon
K-562 leukemia = test system: K-562 leukemia
DU-145 prostate = test system: DU-145 prostate
PC-3 prostate = test system: PC-3 prostate
LOX IMVI melanoma = test system: LOX IMVI melanoma
MDA-MB-231 breast = test system: MDA-MB-231 breast
UACC-257 melanoma = test system: UACC-257 melanoma
TK-10 renal = test system: TK-10 renal
A549 NSCLC = test system: A549 NSCLC
UACC-62 melanoma = test system: UACC-62 melanoma
OVCAR-3 ovarian = test system: OVCAR-3 ovarian
SF-295 CNS = test system: SF-295 CNS
T-47D breast = test system: T-47D breast
NCI-H226 lung = test system: NCI-H226 lung
HS 578T breast = test system: HS 578T breast
SR leukemia = test system: SR leukemia
EKVX NSCLC = test system: EKVX NSCLC
IGROV1 ovarian = test system: IGROV1 ovarian
OVCAR-4 ovarian = test system: OVCAR-4 ovarian
786-0 renal = test system: 786-0 renal
M14 melanoma = test system: M14 melanoma
HOP-92 NSCLC = test system: HOP-92 NSCLC
ACHN renal = test system: ACHN renal
RPMI-8226 leukemia = test system: RPMI-8226 leukemia
SK-MEL-5 melanoma = test system: SK-MEL-5 melanoma
SF-539 CNS = test system: SF-539 CNS
SK-MEL-2 melanoma = test system: SK-MEL-2 melanoma
UO-31 renal = test system: UO-31 renal
SNB-75 CNS = test system: SNB-75 CNS
OVCAR-8 ovarian = test system: OVCAR-8 ovarian

SMILES: COc1cccc2c(Nc3ccc(S(=O)(=O)Nc4ncccn4)cc3)c3ccc([N+](=O)[O-])cc3nc12
- TGI (KM12 colon): > 100 µM
- TGI (MOLT-4 leukemia): 81.2 µM
- TGI (HCT-116 colon): > 100 µM
- TGI (MDA-N): > 100 µM
- TGI (SNB-19 CNS): > 100 µM
- TGI (MALME-3M melanoma): > 100 µM
- TGI (HOP-62 NSCLC): > 100 µM
- TGI (A498 renal): > 100 µM
- TGI (SF-268 CNS): > 100 µM
- TGI (NCI-H23 lung): > 100 µM
- TGI (HCT-15 colon): > 100 µM
- TGI (CCRF-CEM leukemia): > 100 µM
- TGI (SN12C renal): > 100 µM
- TGI (OVCAR-5 ovarian): > 100 µM
- TGI (MDA-MB-435): > 100 µM
- TGI (BT-549 breast): > 100 µM
- TGI (NCI-H460 lung): > 100 µM
- TGI (NCI-H522 lung): > 100 µM
- TGI (SK-OV-3 ovarian): > 100 µM
- TGI (CAKI-1 renal): > 100 µM
- TGI (RXF 393 renal): > 100 µM
- TGI (HT29 colon): > 100 µM
- TGI (U251 CNS): > 100 µM
- TGI (HCC-2998 colon): > 100 µM
- TGI (MCF7 breast): > 100 µM
- TGI (SW-620 colon): > 100 µM
- TGI (SK-MEL-28 melanoma): > 100 µM
- TGI (HL-60(TB) leukemia): 88.6 µM
- TGI (COLO 205 colon): > 100 µM
- TGI (K-562 leukemia): > 100 µM
- TGI (DU-145 prostate): > 100 µM
- TGI (PC-3 prostate): > 100 µM
- TGI (LOX IMVI melanoma): > 100 µM
- TGI (MDA-MB-231 breast): > 100 µM
- TGI (UACC-257 melanoma): > 100 µM
- TGI (TK-10 renal): > 100 µM
- TGI (A549 NSCLC): > 100 µM
- TGI (UACC-62 melanoma): > 100 µM
- TGI (OVCAR-3 ovarian): > 100 µM
- TGI (SF-295 CNS): > 100 µM
- TGI (T-47D breast): > 100 µM
- TGI (NCI-H226 lung): > 100 µM
- TGI (HS 578T breast): > 100 µM
- TGI (SR leukemia): 13.9 µM
- TGI (EKVX NSCLC): > 100 µM
- TGI (IGROV1 ovarian): > 100 µM
- TGI (OVCAR-4 ovarian): > 100 µM
- TGI (786-0 renal): > 100 µM
- TGI (M14 melanoma): > 100 µM
- TGI (HOP-92 NSCLC): > 100 µM
- TGI (ACHN renal): > 100 µM
- TGI (RPMI-8226 leukemia): > 100 µM
- TGI (SK-MEL-5 melanoma): > 100 µM
- TGI (SF-539 CNS): > 100 µM
- TGI (SK-MEL-2 melanoma): > 100 µM
- TGI (UO-31 renal): > 100 µM

SMILES: N#Cc1c(-c2ccccc2)c(C#N)c(=S)n(C2OC(CO)C(O)C(O)C2O)c1N (stereo not given)
- TGI (KM12 colon): > 100 µM
- GI50 (MOLT-4 leukemia): 39.3 µM and > 100 µM
- TGI (MOLT-4 leukemia): > 100 µM
- TGI (HCT-116 colon): > 100 µM
- TGI (MDA-N): > 100 µM
- TGI (SNB-19 CNS): > 100 µM
- TGI (MALME-3M melanoma): > 100 µM
- GI50 (HOP-62 NSCLC): > 100 µM and 36 µM
- TGI (HOP-62 NSCLC): > 100 µM
- TGI (A498 renal): > 100 µM
- TGI (SNB-75 CNS): > 100 µM
- TGI (SF-268 CNS): > 100 µM
- TGI (NCI-H23 lung): > 100 µM
- TGI (HCT-15 colon): > 100 µM
- TGI (CCRF-CEM leukemia): > 100 µM
- TGI (SN12C renal): > 100 µM
- TGI (OVCAR-5 ovarian): > 100 µM
- TGI (BT-549 breast): > 100 µM
- TGI (NCI-H460 lung): > 100 µM
- TGI (NCI-H522 lung): > 100 µM
- TGI (CAKI-1 renal): > 100 µM
- TGI (RXF 393 renal): > 100 µM
- TGI (HT29 colon): > 100 µM
- TGI (U251 CNS): > 100 µM
- TGI (HCC-2998 colon): > 100 µM
- GI50 (MCF7 breast): 91.1 µM and 41.6 µM
- TGI (MCF7 breast): > 100 µM
- TGI (SW-620 colon): > 100 µM
- TGI (SK-MEL-28 melanoma): > 100 µM
- TGI (HL-60(TB) leukemia): > 100 µM
- TGI (K-562 leukemia): > 100 µM
- TGI (DU-145 prostate): > 100 µM
- TGI (PC-3 prostate): > 100 µM
- TGI (OVCAR-8 ovarian): > 100 µM
- TGI (LOX IMVI melanoma): > 100 µM
- TGI (MDA-MB-231 breast): > 100 µM
- TGI (UACC-257 melanoma): > 100 µM
- GI50 (TK-10 renal): 40.5 µM and > 100 µM
- TGI (TK-10 renal): > 100 µM
- TGI (A549 NSCLC): > 100 µM
- TGI (UACC-62 melanoma): > 100 µM
- TGI (OVCAR-3 ovarian): > 100 µM
- TGI (SF-295 CNS): > 100 µM
- TGI (T-47D breast): > 100 µM
- TGI (NCI-H226 lung): > 100 µM
- TGI (HS 578T breast): > 100 µM
- TGI (SR leukemia): > 100 µM
- GI50 (EKVX NSCLC): 44.4 µM and > 100 µM
- TGI (EKVX NSCLC): > 100 µM
- GI50 (IGROV1 ovarian): > 100 µM and 45.5 µM
- TGI (IGROV1 ovarian): > 100 µM
- TGI (OVCAR-4 ovarian): > 100 µM
- TGI (786-0 renal): > 100 µM
- TGI (M14 melanoma): > 100 µM
- GI50 (HOP-92 NSCLC): 42 µM and 21 µM
- TGI (HOP-92 NSCLC): > 100 µM
- TGI (ACHN renal): > 100 µM
- TGI (RPMI-8226 leukemia): > 100 µM
- TGI (SK-MEL-5 melanoma): > 100 µM
- TGI (SF-539 CNS): > 100 µM
- TGI (SK-MEL-2 melanoma): > 100 µM
- GI50 (UO-31 renal): > 100 µM and 40.3 µM
- TGI (UO-31 renal): > 100 µM

SMILES: Brc1ccc(N=NN2CCCC2)cc1
- TGI (KM12 colon): > 100 µM
- TGI (MOLT-4 leukemia): > 100 µM
- TGI (HCT-116 colon): > 100 µM
- TGI (MDA-N): > 100 µM
- TGI (SNB-19 CNS): > 100 µM
- TGI (MALME-3M melanoma): > 100 µM
- TGI (HOP-62 NSCLC): > 100 µM
- TGI (A498 renal): > 100 µM
- TGI (SF-268 CNS): > 100 µM
- TGI (NCI-H23 lung): > 100 µM
- TGI (HCT-15 colon): > 100 µM
- TGI (CCRF-CEM leukemia): > 100 µM
- TGI (SN12C renal): > 100 µM
- TGI (OVCAR-5 ovarian): > 100 µM
- TGI (MDA-MB-435): > 100 µM
- TGI (BT-549 breast): > 100 µM
- TGI (NCI-H460 lung): > 100 µM
- TGI (NCI-H522 lung): > 100 µM
- TGI (SK-OV-3 ovarian): > 100 µM
- TGI (CAKI-1 renal): > 100 µM
- TGI (RXF 393 renal): > 100 µM
- TGI (HT29 colon): > 100 µM
- TGI (U251 CNS): > 100 µM
- TGI (HCC-2998 colon): > 100 µM
- TGI (MCF7 breast): > 100 µM
- TGI (SW-620 colon): > 100 µM
- TGI (SK-MEL-28 melanoma): > 100 µM
- TGI (HL-60(TB) leukemia): > 100 µM
- TGI (COLO 205 colon): > 100 µM
- TGI (K-562 leukemia): > 100 µM
- TGI (DU-145 prostate): > 100 µM
- TGI (PC-3 prostate): > 100 µM
- TGI (LOX IMVI melanoma): > 100 µM
- TGI (MDA-MB-231 breast): > 100 µM
- TGI (UACC-257 melanoma): > 100 µM
- TGI (TK-10 renal): > 100 µM
- TGI (A549 NSCLC): > 100 µM
- TGI (UACC-62 melanoma): > 100 µM
- TGI (OVCAR-3 ovarian): > 100 µM
- TGI (SF-295 CNS): > 100 µM
- TGI (T-47D breast): 97.3 µM
- TGI (NCI-H226 lung): > 100 µM
- TGI (HS 578T breast): > 100 µM
- TGI (SR leukemia): > 100 µM
- TGI (EKVX NSCLC): > 100 µM
- TGI (IGROV1 ovarian): > 100 µM
- TGI (OVCAR-4 ovarian): > 100 µM
- TGI (786-0 renal): > 100 µM
- TGI (M14 melanoma): > 100 µM
- TGI (HOP-92 NSCLC): > 100 µM
- TGI (ACHN renal): > 100 µM
- TGI (RPMI-8226 leukemia): > 100 µM
- TGI (SK-MEL-5 melanoma): > 100 µM
- TGI (SF-539 CNS): > 100 µM
- TGI (SK-MEL-2 melanoma): > 100 µM
- TGI (UO-31 renal): > 100 µM
